From PubChem BioAssay AID602334 (Sanford-Burnham Center for Chemical Genomics, 2012)
Where “and” joins values, the source holds several entries; their conditions need not be identical. Identical values can stand only once. Calls of active or inactive are those of the source. No rule for the calls is given here.

The compounds below were run against Neurotensin receptor type 2 (Homo sapiens) (UniProt O95665) (assay: NTR2 agonist activity for selectivity, SAR follow-up, selectivity assay for NTR1 agonist project, imaging, image-based, set 2 (AID 602334)). Conditions: NTR2-expressing cells, image-based receptor agonism assay.
Chain of Neurotensin receptor type 2 (Homo sapiens) (O95665 whole entry, looked up): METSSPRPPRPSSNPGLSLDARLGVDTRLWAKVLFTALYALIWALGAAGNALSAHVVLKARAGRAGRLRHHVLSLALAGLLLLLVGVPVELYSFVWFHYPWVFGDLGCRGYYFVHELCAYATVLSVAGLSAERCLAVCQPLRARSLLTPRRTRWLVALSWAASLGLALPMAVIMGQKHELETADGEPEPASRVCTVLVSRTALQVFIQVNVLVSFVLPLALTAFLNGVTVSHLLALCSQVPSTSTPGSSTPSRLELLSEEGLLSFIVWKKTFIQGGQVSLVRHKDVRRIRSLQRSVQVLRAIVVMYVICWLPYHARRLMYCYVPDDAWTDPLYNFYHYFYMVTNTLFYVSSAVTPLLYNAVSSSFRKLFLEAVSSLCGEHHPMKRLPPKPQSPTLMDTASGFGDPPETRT

Structure (SMILES)	EC50
COc1cccc(OC)c1-c1cc(C(=O)N[C@@H](CC(C)C)C(=O)OC(C)(C)C)nn1-c1ccnc2cc(Cl)ccc12	> 80 µM (inactive)
COc1ccc2c3nnc(-c4ccc(C)cc4)c-3cn(Cc3ccccc3)c2c1	inactive
Cc1cccc(C)c1-c1nc(C(=O)N[C@@H](CC(C)C)C(=O)O)cn1-c1ccnc2cc(Cl)ccc12	> 80 µM (inactive)
COc1cccc(OC)c1-c1nc(C(=O)N[C@H](CC(C)C)C(=O)O)cn1-c1ccnc2cc(Cl)ccc12	> 80 µM (inactive)
COc1cc2c3nnc(-c4ccc(Cl)cc4)c-3cn(Cc3ccccc3)c2cc1OC	8.47 µM
Cc1ccc(-c2nnc3c4cc5c(cc4n(Cc4ccccc4)cc2-3)OCO5)cc1C	1.78 µM
COc1cccc(OC)c1-c1nc(C(=O)N[C@@H](CC(C)C)C(=O)O)cn1-c1ccnc2ccccc12	> 80 µM (inactive)
CCc1ccc(-c2nnc3c4cc(OC)c(OC)cc4n(Cc4ccc(F)cc4)cc2-3)cc1	inactive
COc1cc2c3nnc(-c4ccc(F)cc4)c-3cn(Cc3ccncc3)c2cc1OC	> 80 µM (inactive)
COc1cc2c3nnc(-c4ccccc4)c-3cn(Cc3ccc(F)cc3)c2cc1OC	> 80 µM (inactive)
COc1cccc(OC)c1-c1nc(C(=O)N[C@@H](CC(C)C)C(=O)O)cn1-c1ccnc2cc(Cl)ccc12	> 80 µM (inactive)
Cc1ccc(Cn2cc3c(-c4ccc(C)c(C)c4)nnc-3c3cc4c(cc32)OCO4)cc1	inactive
COc1cccc(OC)c1-c1cc(C(=O)N[C@@H](CC(C)C)C(=O)O)nn1-c1ccnc2cc(Cl)ccc12	> 80 µM (inactive)
Fc1ccc(Cn2cc3c(-c4ccc(Cl)cc4)nnc-3c3cc4c(cc32)OCO4)cc1	inactive
COc1cc2c3nnc(-c4ccccc4)c-3cn(Cc3ccccc3)c2cc1OC	inactive
Fc1ccc(-c2nnc3c4cc5c(cc4n(Cc4ccccc4)cc2-3)OCO5)cc1	> 80 µM (inactive)

Structure (SMILES)	EC50
Cc1ccc(Cn2cc3c(-c4ccc(F)cc4)nnc-3c3cc4c(cc32)OCO4)cc1	> 80 µM (inactive)
CC(C)C[C@H](NC(=O)c1cn(-c2ccnc3cc(Cl)ccc23)c(-c2c(Cl)cccc2Cl)n1)C(=O)O	> 80 µM (inactive)
COc1cc2c3nnc(-c4ccc(Cl)cc4)c-3cn(Cc3ccc(F)cc3)c2cc1OC	8.36 µM
COc1ccc2c(c1)c1nnc(-c3ccc(F)cc3)c-1cn2Cc1ccccc1	17 µM
COc1cc2c3nnc(-c4ccc(F)cc4)c-3cn(Cc3ccc(F)cc3)c2cc1OC	inactive
Fc1ccc(Cn2cc3c(-c4ccc(F)cc4)nnc-3c3cc4c(cc32)OCO4)cc1	inactive
COc1ccc2c(c1)c1nnc(-c3ccc(F)cc3)c-1cn2Cc1ccc(F)cc1	inactive
COc1cc2c3nnc(-c4ccc(F)cc4)c-3cn(Cc3ccccc3N(C)C)c2cc1OC	4.37 µM and 3.73 µM
COc1ccc2c3nnc(-c4ccc(C)cc4)c-3cn(Cc3ccc(C)cc3)c2c1	> 80 µM (inactive)
COc1ccccc1-c1cc(C(=O)N[C@@H](CC(C)C)C(=O)O)nn1-c1ccnc2cc(Cl)ccc12	> 80 µM (inactive)
COc1cc2c3nnc(-c4ccc(F)cc4)c-3cn(Cc3ccccc3)c2cc1OC	9.39 µM and 7.28 µM
Cc1ccc(-c2nnc3c4cc5c(cc4n(Cc4ccc(F)cc4)cc2-3)OCO5)cc1	inactive
COc1cc2c3nnc(-c4ccc(F)cc4)c-3cn(Cc3ccc(Cl)cc3)c2cc1OC	15.8 µM
COc1cccc(OC)c1-c1nc(C(=O)N[C@@H](CC(C)C)C(=O)O)cn1-c1cccc2ccccc12	> 80 µM (inactive)
COc1cc2c3nnc(-c4ccc(F)cc4)c-3cn(Cc3ccccc3F)c2cc1OC	3.61 µM
COc1ccc2c3nnc(-c4ccc(C)cc4)c-3cn(Cc3ccc(F)cc3)c2c1	> 80 µM (inactive)

Second part, the compound after the results:

EC50	Structure (SMILES)
12.7 µM	COc1cc2c3nnc(-c4ccc(C)cc4)c-3cn(Cc3ccc(C)cc3)c2cc1OC
11 µM	COc1cc2c3nnc(-c4ccc(F)cc4)c-3cn(Cc3ccc(C)cc3C)c2cc1OC
> 80 µM (inactive)	COc1cc2nc(C3CC3)nc(N3CCN(S(=O)(=O)c4ccccc4)CC3)c2cc1OC
> 80 µM (inactive)	CCCc1nc(N2CCN(c3ccccc3OC)CC2)c2cc(OC)c(OC)cc2n1
> 80 µM (inactive)	COc1cc2nc(C3CC3)nc(N3CCN(c4ccccc4OC)CC3)c2cc1OC
> 80 µM (inactive)	CCOc1ccc(-c2nnc3c4cc(OC)c(OC)cc4n(Cc4ccccc4)cc2-3)cc1
> 80 µM (inactive)	COc1cc2nc(C3CCC3)nc(N3CCN(c4ccccc4[N+](=O)[O-])CC3)c2cc1OC
> 80 µM (inactive)	COc1cc2nc(C3CCC3)nc(N3CCN(c4ccccc4OC)CC3)c2cc1OC
> 80 µM (inactive)	CCOc1ccc(-c2nnc3c4cc(OC)c(OC)cc4n(Cc4ccc(C)cc4)cc2-3)cc1
> 80 µM (inactive)	CCc1nc(N2CCN(c3ccccc3OC)CC2)c2cc(OC)c(OC)cc2n1
> 80 µM (inactive)	COc1ccc(N2CCN(c3nc(C4CCC4)nc4cc(OC)c(OC)cc34)CC2)c(OC)c1
> 80 µM (inactive)	CCOc1ccccc1N1CCN(c2nc(C3CC3)nc3cc(OC)c(OC)cc23)CC1
9.08 µM	COc1cc2c3nnc(-c4ccc(C)cc4)c-3cn(Cc3ccc(F)cc3)c2cc1OC
> 80 µM (inactive)	COc1cc2nc(C3CCC3)nc(N3CCN(c4ccccn4)CC3)c2cc1OC
> 80 µM (inactive)	COc1cc2nc(C3CCC3)nc(N3CCN(c4c(C)cccc4C)CC3)c2cc1OC
> 80 µM (inactive)	COc1ccccc1CN1CCN(c2nc(C3CC3)nc3cc(OC)c(OC)cc23)CC1
> 80 µM (inactive)	COc1cc2nc(CC3CC3)nc(N3CCN(c4ccccc4OC)CC3)c2cc1OC
> 80 µM (inactive)	COc1cc2nc(C3CC3)nc(N3CCN(c4ccccc4Cl)CC3)c2cc1OC
> 80 µM (inactive)	COc1cc2c3nnc(-c4ccc(C)c(C)c4)c-3cn(Cc3ccccc3)c2cc1OC
> 80 µM (inactive)	C=Cc1nc(N2CCN(c3ccccc3OC)CC2)c2cc(OC)c(OC)cc2n1
> 80 µM (inactive)	COc1cc2nc(C3CCC3)nc(N3CCN(c4ccccc4F)CC3)c2cc1OC
> 80 µM (inactive)	COc1cc2nc(C3CCC3)nc(N3CCN(c4ccccc4Cl)CC3)c2cc1OC
10.6 µM	COc1ccc(-c2nnc3c4cc(OC)c(OC)cc4n(Cc4ccc(C)cc4)cc2-3)cc1

EC50	Structure (SMILES)
> 80 µM (inactive)	COc1cc2nc(CCN(C)C)nc(N3CCN(c4ccccc4OC)CC3)c2cc1OC
inactive	COc1ccc(-c2nnc3c4cc(OC)c(OC)cc4n(Cc4ccccc4)cc2-3)cc1
> 80 µM (inactive)	COc1cc2nc(CCN3CCN(c4ccccc4OC)CC3)nc(N3CCN(c4ccccc4OC)CC3)c2cc1OC
> 80 µM (inactive)	CCOc1ccc(-c2nnc3c4cc(OC)c(OC)cc4n(Cc4ccc(F)cc4)cc2-3)cc1
> 80 µM (inactive)	COc1cc2nc(CC(C)C)nc(N3CCN(c4ccccc4OC)CC3)c2cc1OC
> 80 µM (inactive)	COc1cc2nc(C(C)C)nc(N3CCN(c4ccccc4OC)CC3)c2cc1OC
> 80 µM (inactive)	COc1cc2nc(C3CC3)nc(N3CCN(Cc4ccc(C)cc4)CC3)c2cc1OC
15 µM and 15.7 µM	COc1cc2c3nnc(-c4ccc(F)cc4)c-3cn(Cc3ccc(C)cc3)c2cc1OC
> 80 µM (inactive)	COc1cc2nc(C3CC3)nc(N3CCN(C(=O)c4ccccc4OC)CC3)c2cc1OC
> 80 µM (inactive)	COc1ccc2nc(C3CCC3)nc(N3CCN(c4ccccc4OC)CC3)c2c1
> 80 µM (inactive)	COc1cc2nc(C3CC3)nc(N3CCN(C(=O)OC(C)(C)C)CC3)c2cc1OC
14.7 µM	COc1ccc(Cn2cc3c(-c4ccc(F)cc4)nnc-3c3cc(OC)c(OC)cc32)cc1
10.2 µM and 9.29 µM	COc1cc2c3nnc(-c4ccc(F)cc4)c-3cn(Cc3cccc(C)c3)c2cc1OC
> 80 µM (inactive)	COc1cc2nc(C3CC3)nc(N3CCN(C(=O)c4ccccc4)CC3)c2cc1OC
> 80 µM (inactive)	COc1cc2nc(C3CCCC3)nc(N3CCN(c4ccccc4OC)CC3)c2cc1OC
6.91 µM	COc1cc2c3nnc(-c4ccc(F)cc4)c-3cn(Cc3ccccc3C)c2cc1OC
> 80 µM (inactive)	COc1cc2c3nnc(-c4ccc(Cl)cc4)c-3cn(Cc3ccc(C)cc3)c2cc1OC
> 80 µM (inactive)	COc1cc2nc(C3CCC3)nc(N3CCN(c4ccccc4C)CC3)c2cc1OC
> 80 µM (inactive)	COc1cc2nc(C3CC3)nc(N3CCNCC3)c2cc1OC
inactive	COc1cc2c3nnc(-c4ccc(C)c(C)c4)c-3cn(Cc3ccc(F)cc3)c2cc1OC
> 80 µM (inactive)	COc1cc2nc(C3CCC3)nc(N3CCN(c4ccccc4)CC3)c2cc1OC
> 80 µM (inactive)	COc1ccc2nc(C3CC3)nc(N3CCN(c4ccccc4OC)CC3)c2c1
> 80 µM (inactive)	COc1cc2nc(Cc3ccccc3)nc(N3CCN(c4ccccc4OC)CC3)c2cc1OC
